Reference: patent US6495514B1, “Method for reducing inflammation and inducing an analgesic effect and compounds thereof” (Mercer University, priority 1998, dated 2002)
Marks after values point to notes of the source that are not given here.

How the values were obtained:
serotonin edema = test: Serotonin-induced hind paw edema; type: in vivo, rat
Protocol: (§1) Carrageenan, bradykinin and serotonin edemas were induced in anesthetized, male Sprague-Dawley rats (150-175 g) by injecting 0.5 mg (0.05 ml) of carrageenan, 50 μg (0.1 ml) of bradykinin and 20 μg (0.1 ml) of serotonin, respectively, into the subplantar region of the left hind paws the contralateral hind paws received saline only. Hind paw volumes (edema) were measured plethysmographically by displacement of mercury at 0, 1, 2, 3, 4 and 6 hours post administration of carrageenan, 30 minutes after bradykinin and 1 hour after serotonin. Swelling was determined by subtracting the volume (ml) of the right hind . paw from that of the left. PBA was administered subcutaneously 30 minutes before the administration of carrageenan and serotonin and one hour before bradykinin. In those experiments in which PBA was delivered continuously to rats over a 7 day period prior to the administration of carrageenan, ALZET osmotic pumps (Palo Alto, Calif.) were filled with drug and implanted subcutaneously between the scapulae into anesthetized rats.

[1] = molecular target: T1, peptidylglycine α-monooxygenase (PAM) (Rattus norvegicus, UniProt P14925); test: Serum PAM activity after PBA dosing in rats; type: in vivo; conditions: for inhibition at 500 mg/kg: rat, sc
T1 construct: 50 μl of serum sample (enzyme source) was added to 200 μl of the assay mixture; from tissue; host or cells: rat serum (tail vein blood)
T1 sequence (P14925 36-976): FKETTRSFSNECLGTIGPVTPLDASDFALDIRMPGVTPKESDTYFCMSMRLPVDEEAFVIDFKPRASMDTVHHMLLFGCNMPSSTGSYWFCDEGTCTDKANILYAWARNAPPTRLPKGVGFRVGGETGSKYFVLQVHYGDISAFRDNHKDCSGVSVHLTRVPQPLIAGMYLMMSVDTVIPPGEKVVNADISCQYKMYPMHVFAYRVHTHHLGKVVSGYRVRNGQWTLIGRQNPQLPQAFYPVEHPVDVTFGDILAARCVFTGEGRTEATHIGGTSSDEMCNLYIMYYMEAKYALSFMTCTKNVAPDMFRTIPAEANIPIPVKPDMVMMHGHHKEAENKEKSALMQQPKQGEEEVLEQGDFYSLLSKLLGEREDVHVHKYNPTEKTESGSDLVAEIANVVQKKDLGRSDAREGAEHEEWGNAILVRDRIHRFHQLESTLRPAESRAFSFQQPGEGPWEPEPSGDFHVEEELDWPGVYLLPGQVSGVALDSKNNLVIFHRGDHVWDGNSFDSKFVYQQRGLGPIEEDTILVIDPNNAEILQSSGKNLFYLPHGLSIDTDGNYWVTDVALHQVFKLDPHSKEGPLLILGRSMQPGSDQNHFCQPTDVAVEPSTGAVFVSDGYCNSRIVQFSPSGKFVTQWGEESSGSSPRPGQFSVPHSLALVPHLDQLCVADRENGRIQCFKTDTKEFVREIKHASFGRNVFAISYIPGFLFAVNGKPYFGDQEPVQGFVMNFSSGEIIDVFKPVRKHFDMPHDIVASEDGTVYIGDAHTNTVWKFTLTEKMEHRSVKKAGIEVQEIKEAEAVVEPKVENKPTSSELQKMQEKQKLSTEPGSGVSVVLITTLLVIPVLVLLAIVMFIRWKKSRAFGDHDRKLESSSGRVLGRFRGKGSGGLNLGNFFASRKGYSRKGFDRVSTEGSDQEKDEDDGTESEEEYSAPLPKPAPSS
Protocol: (§2) Male rats were fasted overnight and anesthetized with ether to obtain blood samples for measuring PAM and PGL activity in serum. Blood (0.5 ml) was collected from the tail vein at different times and spun at 14,000×g for 5 minutes. Serum was collected and stored at −70° C. until assayed. PAM activity was determined based on the procedure disclosed in Katopodis et al. (Biochemistry 30, 6189-6194, 1991). Briefly, 50 μl of serum sample (enzyme source) was added to 200 μl of the assay mixture which contained tripeptide TNP-D-Tyr-Val-Gly as the enzyme substrate (40 μM), copper sulfate (15 μM), L-ascorbate (4 mM) and catalase (1 mg/ml) in MES buffer (100 mM, pH 6.5). After a 30 minute incubation period at 37° C., an aliquot (90 μl) was quenched with 10 μl of HClO4 (3M) and centrifuged at 14,000×g for 5 minutes. A 20 μl aliquot was removed and used to assay for product using reverse phase HPLC at 344 nm on a C8 column with a mobile phase of 56% water/0.1% trifluoroacetic acid/44% acetonitrile at a flow rate of 1.5 mL/min. In this manner, both TNP-D-Tyr-Val-NH2 as well as the TNP-D-Tyr-Val-α-hydroxyGly were quantitated simultaneously. PGL activity was assayed by measuring the conversion of α-hydroxyhippuric acid to benzamide as disclosed in Katopodis and May (Biochemistry 29, 4541-4548, 1990). Briefly, 50 μl of the serum sample was added to 200 μl of a 100 mM MES buffer solution (pH 6.5) containing 2 mM of the enzyme substrate. After incubation for 30 minutes at 37° C., an aliquot of the assay mixture was quenched with 3 M HClO4, centrifuged at 14,000×g and 20 μl used to analyze for benzamide product by HPLC using a C8 reverse phase column. Product detection was performed at 225 nm using a mobile phase of 80% water/0.1% trifluoroacetic acid/20% acetonitrile at a flow rate of 1.5 mL/min. Enzyme activity was expressed as milliunits per milliliter which is the amount of enzyme required to produce one nanomole of product.

[2] = tested on: acetylcholine-induced writhing; test: Acetylcholine-induced writhing; type: in vivo, mice
Protocol: (§3) The effects of PBA on the perception of pain was evaluated using several different animal models. The spinally-mediated tail-flick response to heat in fasted rats (250-290 g) was used by measuring the withdrawal latency following immersion of the rodent's tail (2″) into hot water (50° C.). PBA at several different dose levels was administered subcutaneously and the time to tail withdrawal was measured at 0, 15, 30 and 60 minutes post-drug administration. The analgesic effects of PBA were also evaluated in fasted mice following the injection of either phenyl-p-quinone or acetylcholine. Male, ND4 Swiss mice (15-20 g) were dosed subcutaneously with PBA or saline followed immediately by the injection of phenyl-p-quinone (2 mg/kg i.p.). After 5 minutes, the number of writhes (abdominal constrictions along with contortion of the trunk and extension of the hindlimbs) was counted over the next 10 minutes. When acetylcholine (6 mg/kg i.p.) was used as the noxious agent, PBA was administered subcutaneously 15 minutes before the administration of the algesic agent. The number of writhes produced was counted over the last 5 minutes following the algesic agent.

tail withdrawal latency = test: Tail-flick response to heat (50° C. water); type: in vivo, rat; conditions: s.c., doses up to 750 mg/kg; 15, 30 and 60 minutes post-drug
Protocol: as §3

[3] = molecular target: T2, peptidylamidoglycolate lyase (PGL) (Rattus norvegicus, UniProt P14925); test: Serum PGL activity after PBA dosing in rats; type: in vivo; conditions: 500 mg/kg s.c., 24 hour observation period
T2 construct: from tissue; host or cells: rat serum (tail vein blood)
T2 sequence (P14925 36-976): T1 sequence (P14925 36-976)
Protocol: as §2, with “PGL activity was assayed by measuring the conversion of α-hydroxyhippuric acid to benzamide as disclosed in Katopodis and May (Biochemistry 29, 4541-4548, 1990). Briefly, 50 μl of the serum sample was added to 200 μl of a 100 mM MES buffer solution (pH 6.5) containing 2 mM of the enzyme substrate. After incubation for 30 minutes at 37° C., an aliquot of the assay mixture was quenched with 3 M HClO4, centrifuged at 14,000×g and 20 μl used to analyze for benzamide product by HPLC using a C8 reverse phase column. Product detection was performed at 225 nm using a mobile phase of 80% water/0.1% trifluoroacetic acid/20% acetonitrile at a flow rate of 1.5 mL/min.” left out

substance P (SP) = test: SP levels in hind paw tissue (RIA); type: in vivo, rat; conditions: 75 mg/kg/hr for 7 days, prior to carrageenan (time 0)
Protocol: The effects of PBA on levels of SP were evaluated using a modification of a method previously disclosed in Ahmed et al. (Peptides 15, 317-322, 1994). Briefly, at different times following the administration of carrageenan, hind paw ankle joints were removed, immediately frozen on dry ice and stored at −80° C. until assayed for SP. After the frozen sample was weighed, it was boiled for 7 minutes as a 10% w/v solution of 2M acetic acid in 4% EDTA, pH 3.5, cut into small pieces and boiled for an additional 7 minutes. Samples were then homogenized for 60 seconds in a Brinkmann Polytron (Westbury, N.Y.), sonicated for 30 seconds and centrifuged at 3000×g for 20 minutes. Supernatants were lyophilized and then diluted in radioimmunoassay (RIA) buffer prior to analysis. SP levels were determined from these samples by using a commercially available RIA kit (INCSTAR, Stillwater, Minn.). Initial experiments conducted to insure the specificity of the substance P antibody for SP found the cross-reactivity for the glycine-extended precursor to be 1.7% at concentrations up to 100 nanograms/ml.

[4] = tested on: phenyl-p-quinone-induced writhing; test: Phenyl-p-quinone-induced writhing; type: in vivo, mice
Protocol: as §3

bradykinin edema = test: Bradykinin-induced hind paw edema; type: in vivo, rat
Protocol: as §1

carrageenan edema = test: Carrageenan-induced hind paw edema; type: in vivo, rat; conditions: for inhibition of hind paw edema: 2 hours post-administration
Protocol: as §1, with “PBA was administered subcutaneously 30 minutes before the administration of carrageenan and serotonin and one hour before bradykinin.” left out

[5] = dose that produced significant inhibition of carrageenan edema

serum PAM activity compared to controls ([1]; 75 mg/kg/hr for 7 days, prior to carrageenan (time 0)): significantly reduced
dose dependence of inhibition of serum PAM activity ([1]; 50, 150 and 500 mg/kg, normal rats): dose-related
sustained reduction in serum PAM activity ([1]; continuous release 50 to 100 mg/kg/hr s.c. via osmotic pumps, throughout 7 day dosing period): > 75%
inhibition at 500 mg/kg ([1]; 500 mg/kg s.c. single dose, by 6 hours): 43%
inhibition at 500 mg/kg ([1]; 500 mg/kg s.c. single dose, conscious rats, within 1 hour, remained during first 3 hours): > 90%
effect on serum PGL activity [3]: no effect
SMILES: O=C(O)C/C=C/c1ccccc1 [PBA, trans-4-phenyl-3-butenoic acid]
Inhibition (%) (serotonin edema; Serotonin 20 μg, PBA s.c. 30 minutes before, measured 1 hour after): 18.5%
Hind Paw Volume (mL ± S.E.M.) (serotonin edema; Serotonin 20 μg, PBA s.c. 30 minutes before, measured 1 hour after, n = 8): 0.66 ± 0.03 mL
inhibitory activity on edema produced by serotonin (serotonin edema; [5]): lacked significant inhibitory activity
serum PAM activity vs control ([1]; 500 mg/kg s.c. single dose, after 24 hours): not significantly different from control values
analgesic effect in writhing assay ([2]; 100 mg/kg dose): significant analgesic effect
ED50 ([2]; Mus musculus, sc, s.c. 15 minutes before acetylcholine, percentage of animals per group that writhed (all or none)): 105 mg/kg
effect on time to tail withdrawal (tail withdrawal latency): did not have any effect
SP levels in hind paw tissue compared to controls (substance P (SP)): significantly reduced
analgesic effect in writhing assay ([4]; 100 mg/kg dose): significant analgesic effect
inhibition of writhing ([4]; 250 mg/kg s.c.): greater than 85%
Inhibition (%) (bradykinin edema; Bradykinin 50 μg, PBA s.c. 1 hour before, measured 30 minutes after): 25.6%
Hind Paw Volume (mL ± S.E.M.) (bradykinin edema; Bradykinin 50 μg, PBA s.c. 1 hour before, measured 30 minutes after, n = 8): 0.29 ± 0.04 mL
inhibitory activity on edema produced by bradykinin (bradykinin edema; [5]): lacked significant inhibitory activity
inhibition of carrageenan edema (carrageenan edema; 75 mg/kg/hr for 1 week before carrageenan, each time period): significant inhibition
activity on carrageenan edema (carrageenan edema; 100 mg/kg dose): did not show any activity
inhibition of hind paw swelling (carrageenan edema; 100 mg/kg, administered 2 hours after induction of inflammation): only effective at hour 3
inhibition of hind paw edema (carrageenan edema; 250 mg/kg s.c. 30 minutes before carrageenan): 43%
inhibition of hind paw swelling (carrageenan edema; 250 mg/kg, administered 2 hours after induction, up to 6 hours post-phlogistic agent): significant inhibition of hind paw swelling
inhibition of hind paw edema (carrageenan edema; 500 mg/kg s.c. 30 minutes before carrageenan): 67%
inhibition of hind paw swelling (carrageenan edema; 500 mg/kg, administered 2 hours after induction, up to 6 hours post-phlogistic agent): significant inhibition of hind paw swelling
Inhibition (%) (carrageenan edema; Carrageenan, PBA s.c. 30 minutes before, measured 2 hours after, P < .05): 66.7^b %
Hind Paw Volume (mL ± S.E.M.) (carrageenan edema; Carrageenan, PBA s.c. 30 minutes before, measured 2 hours after, n = 8): 0.31 ± 0.07 mL
dose dependence of inhibition of hind paw edema (carrageenan edema; s.c. 30 minutes before carrageenan, at 2 and 3 hours post-administration): dose-related inhibition
